This is an account of results in a melting point compilation (Tetko et al.; mined from patent text by program, amines drawn as free bases though some values may be those of a salt).

SMILES strings stand for the structures.

As for `Cc1cccc2c1N(CC(=O)N1CC3CCC(CC3)C1)C(=O)C(NC(=O)c1cc3ccccc3[nH]1)N=C2C1CCCCC1` (racemic), the melting point lay within 206 to 212 °C. In turn, `O=C(CCCCO)NCC1Cc2ccccc2Cc2ccccc21` (configuration not stated) had a melting point of 96 to 98 °C.

`CCC(C)(NC(=O)c1cc(Cl)c(N)c(Cl)c1)C(=O)CCl` (configuration not stated) came in with a melting point of 134 to 138 °C. For `CCOC(=O)NNC(=O)NCC(=O)OC` the value was 116 to 121 °C; for `O=C(O)C(=O)c1ccc(OCCCCOc2ccc3ccccc3c2)cc1`, 133 to 135 °C. Turning to `Nc1ccc(CS(=O)(=O)NC2CCCCC2)cc1`, the melting point was in the range of 141 to 143 °C. For `COc1nc(OC)c(C(C)C)c(C(=O)c2cc(C)cc(Cl)c2)n1`, the melting point fell in the range of 119 to 120 °C. On to `Cc1nccn1C(=O)NC1CCCCC1`, for which the melting point was 100 to 102 °C.

Take `N#CCc1ccc2ncc(C(=O)NCc3ccc(Cl)cc3)c(O)c2c1`: the melting point lay in the range of 244 to 246 °C. `CC[C@H](Cn1cnnc1)n1cnc2cc3c(=O)n([C@H](CC)Cn4ncnn4)cnc3cc2c1=O` yielded a melting point of 130 to 132 °C.

With `Cc1cc(N2CC=C(C(=O)O)CC2)c2cccc(-c3ccc(Cl)cc3Cl)c2n1`, the melting point fell in the range of 218 to 220 °C. To `CCNC1CCc2c(ccc(OC)c2OC)C1O` (configuration not stated) belongs 125 to 128 °C. `C1=C(c2cccc(CNCCOc3cccc4c3OCC4)c2)CCC1` yielded a melting point of 118 °C. To `Cc1ccc(S(=O)(=O)OCCc2cccc3[nH]cc(S(=O)(=O)c4ccccc4)c23)cc1` belongs 58 to 60 °C; to `CCCCc1ccc(-c2csc(-c3ccc(C(=O)O)cc3)n2)cc1`, 263 to 265 °C.

Regarding `Cc1nc2cnccc2n1-c1ccc(O)cc1F`, the melting point amounted to 294 °C. For the molecule `CC(=O)NCc1cccc(Nc2nccc(-c3sc(N(C)c4cc(Cl)cc(Cl)c4)nc3C)n2)c1`, the melting point lay in the range of 213 to 214 °C. For the molecule `OCc1ccc(OCc2coc(-c3ccccc3)n2)cc1`, the melting point was in the range of 141 to 142 °C. Turning to `NC(=O)c1cnc2c(NC(=O)c3c(Cl)cccc3Cl)cccc2c1`, the melting point was > 250 °C.

As to `Cc1ccccc1C(CCC(=O)O)Oc1cc(OCc2ccsc2)ccc1C(=O)NC(Cc1ccccc1)C(=O)O` (configuration not stated), the melting point lay in the range of 178 to 180 °C.

For `COc1ccccc1-c1nc(-c2ccccc2)c2ncc(Cl)cc2n1`, the melting point lay in the range of 116 to 117 °C. The molecule `Cc1c(NC(=O)c2ccc(-c3ccc(F)cc3)cc2)ccc2cc(CN3CCN(C)CC3)cnc12` yielded a melting point of 152 to 153 °C. Consider `CN1CCN(c2cccc3ccc(-c4cccc(F)c4)cc23)CC1`, for which the melting point turned out to be 116 °C. Take `CC(C)S(=O)(=O)ON=C(C#N)c1cccs1`: the melting point was 80 to 82 °C. Turning to `O=S(=O)(Nc1cccc(Cl)c1)c1ccc(Nc2nc(OCC3CCCCC3)c3nc[nH]c3n2)cc1`, the melting point lay in the range of 248 to 249 °C. For the molecule `CC1(C(=O)O)CCC2(C)CCC3(C)C(=CCC4C5(C)CCC(O)C(C)(C)C5CCC43C)C2C1` (configuration not stated), the melting point lay in the range of 329 to 331 °C. For `CSc1ccc(N2CCOC2=O)cc1[N+](=O)[O-]`, the melting point is 180 °C. Molecule `C#CCOC(=O)c1ccc(Br)s1` yielded a melting point of 65 to 68 °C. Take `CC(C)(C)c1cc(I)c2c(c1)CNC1(O2)C2CC3CC(C2)CC1C3` (configuration not stated): the melting point was in the range of 162 to 164 °C. The molecule `Cc1cc(NC(=O)C2=C(O)c3ccccc3S(=O)(=O)CC2)no1` came in with a melting point of 226 to 228 °C. As for `O=C(NCC(=O)N1c2ccccc2N(Cc2ccccc2)C(=O)[C@H]2CCC[C@H]21)c1cccnc1` (relative stereo), the melting point was 189 to 191 °C. To `CCC(=O)OC[C@H]1O[C@@H]2[C@@H](Sc3ccc(Cl)cc3N2CCN(CC)CC)[C@@H](OC(=O)CC)[C@@H]1OC(=O)CC` belongs 125 to 127 °C.

`CC(C)(C)OC(=O)Nc1cc(OCc2ccccc2)c2ncccc2c1I` came in with a melting point of 118 to 119 °C.

The molecule `Cc1cc(C(=O)N2Cc3cccn3Cc3ccccc32)ccc1C1=CCCCC1(C)C` returned a melting point of 131 °C. In turn, `COc1cc(/C=C/C(=O)NCCN2CCC(c3c[nH]c4ccccc34)CC2)ccc1O` showed a melting point of 115 to 135 °C. As to `c1ccc(-c2ccc(CCNc3ccncc3)cc2)cc1`, the melting point was determined as 140 °C. Molecule `CC(=O)Oc1ccc([N+](=O)[O-])cc1C1(OC(C)=O)C(=O)c2ccccc2C1=O` had a melting point of 163 to 167 °C.

Molecule `OC1CSC(Oc2cccc(-c3cncc(F)c3)c2)C(O)C1O` (configuration not stated) showed a melting point of 211 to 212 °C. Molecule `C#CCNC(=O)C(C#N)C(=O)C1CC1` (configuration not stated) registered a melting point of 128 to 129 °C. For `CCOC(=O)CCCCCOc1cc2c(c(Cl)c1Cl)C(=O)C(C)(C1CCCC1)C2` (configuration not stated) the value was 69 to 72 °C; for `CC(c1ccc2[nH]c(-c3cccnc3)nc2c1)n1ccnc1` (configuration not stated), 254 °C. The molecule `COc1cc2ccnc(N3CCN(C(=O)Nc4ccc([N+](=O)[O-])cc4)CC3)c2cc1OC` returned a melting point of 247 to 248 °C. For `O=C1CC2(CCCC2)c2ccc(O)cc21`, the melting point was 145 °C. With `N=C(NCC1(c2ccccc2)CC1)NN=Cc1c(Cl)cccc1Cl`, the melting point fell in the range of 136 to 138 °C. The molecule `CC1C[C@H]2[C@@H]3CCC4=CC(=O)CC[C@]4(CS)[C@H]3CC[C@]2(C)C1=O` (some centres not stated) gave a melting point of 130 to 132 °C. `Cc1cc(-c2cc(C(F)(F)F)nn2-c2ccc(S(C)(=O)=O)c(F)c2)ccc1-c1ccco1`: the melting point is 123 to 125 °C. Regarding `CCN1C(=O)C(C)(C)C(=O)N(C)c2cc(OCCCN(CCc3cccnc3)C(=O)c3ccncc3)ccc21`, the melting point is 88.1 to 92.2 °C. For `N#CC1=C(c2ccccc2)CN(c2ccccc2)C1=O` the value was 188 to 190 °C; for `O=C(O)c1cn(-c2c[nH]nn2)c2cc(F)c(F)cc2c1=O`, 215 to 224 °C. `O=C1Nc2ccccc2C1c1cc(Cl)ccc1O` (configuration not stated) showed a melting point of 256 to 258 °C. With `COc1cccc(C(=O)NCCc2ccc(-c3ccc(OC(C)(C)C(=O)O)cc3)cc2)c1`, the melting point amounted to 117 °C.

As to `Cc1ccnc2c1n(C(C)C)c(=O)n2-c1ccc(Oc2nc3cccnc3n2C)cc1`, the melting point lay within 270 to 271 °C. To `CCN(CC)CCN1C(=O)C(C)(C)N=C(c2ccccc2Cl)c2cc([N+](=O)[O-])ccc21` belongs 70 °C; to `CC(C)c1ccnc(NC(=S)NCCC2=CCCCC2)c1`, 105 to 106 °C; to `Nc1nnc(-c2ccc3occ(-c4ccccc4Cl)c3c2)o1`, 220 to 221 °C. Take `CCCCCCCN(CCCCCSc1nc2ccc([N+](=O)[O-])cc2[nH]1)C(=O)Nc1ccc(F)cc1F`: the melting point is 120 to 122 °C. Consider `FC(F)(F)c1cccc(NC2CCCN(c3ccc(Cl)nn3)C2)c1` (configuration not stated), for which the melting point was 92.6 °C. `COCCN1C(=O)CCCc2cc(N)ccc21` came in with a melting point of 134 to 135 °C. As to `CC1(C)NC(=O)CN1C(=O)CNC(=O)CN1CCCC1=O`, the melting point lay within 229 to 231 °C. On to `Cc1ccc(-c2nc(-c3cnccc3C)sc2F)cc1`, for which the melting point is 96 °C. On to `CCCN1CCN(c2ncc3c(=O)c(C(=O)O)cn(CC)c3n2)CC1`, for which the melting point amounted to 149 °C. On to `CCCCc1oc2ccc(C(=O)OC)cc2c1C(=O)c1ccc(OC)cc1`, for which the melting point was in the range of 75 to 78 °C.
